# Measurements taken from patent US12257339B2, “Phytocomplex and extract of a meristematic cell line selected from a plant belonging to the genus Rosa” (AETHERA BIOTECH S.R.L., priority 2019, dated 2025).
# Assay: Antioxidant activity, DPPH method
# Format: biochemical
# Conditions: methanol extract/solution; absorbance at 517 nm
# Experimental: The assay of antioxidant activity was performed using the DPPH method. The assay with the DPPH (2,2-diphenyl-1-picryl-hydrazyl) radical has the aim of evaluating, in vitro, the antioxidant activity of the line of Rosa […] vis-à-vis a stained stable radical and measuring its disappearance by spectrophotometry. […] The Rc-F2P homogenate of meristematic cells of Rosa […] extracted in methanol and placed in an ultrasonic bath for 20 minutes. Various aliquots of solution were taken and they were added to a same amount of DPPH solution and brought to volume with methanol, so as to evaluate the antioxidant capacity of the sample at different concentrations. The results are expressed as EC50, i.e. as the concentration of the Rc-F2P phytocomplex capable of decreasing the initial absorbance of the radical at 517 nm by 50%. The result is then compared with that obtained from a methanol solution of ascorbic acid, used as a reference. The lower the EC50, the greater the antioxidant capacity.
smiles,measurement,value
"O=C1O[C@H]([C@@H](O)CO)C(O)=C1O [Ascorbic acid, ascorbic acid]",EC50 (concentration decreasing the initial absorbance of the DPPH radical at 517 nm by 50%),3.19 ± 0.16 µg/mL
